One experiment has as its target SRC (Homo sapiens, UniProt P12931). Also noted: Cerep Bioprint off-target panel, enzyme or kinase inhibition. The following applies: inhibitor. The protocol:
(§1) To discover a potent and selective BDK inhibitor, a subset of the Pfizer compound collection was screened. […] Off target activity was assessed in both CEREP and kinase panels (Supplementary Tables 2, 3).

The target of a further experiment is T1, Phosphodiesterase 3B (Homo sapiens, UniProt Q13370).
T1 construct: gene PDE3B
More on the design: Cerep Bioprint off-target panel, enzyme or kinase inhibition. The following applies: inhibitor. The protocol: as §1

The target in another experiment is Kdr Kinase (VEGFR2) (Homo sapiens, UniProt P35968). More on the design: Cerep Bioprint off-target panel, enzyme or kinase inhibition. The following applies: inhibitor. The protocol: as §1
The next experiment has as its target T2, P38alpha MAP Kinase (Homo sapiens, UniProt Q16539).
T2 construct: gene MAPK14
Also noted: Cerep Bioprint off-target panel, enzyme or kinase inhibition. The following applies: inhibitor. The protocol: as §1

The next experiment addresses T3, Monoamine Oxidase A (Homo sapiens, UniProt P21397).
T3 construct: gene MAOA
More on the design: Cerep Bioprint off-target panel, enzyme or kinase inhibition. As to conditions: inhibitor. The protocol: as §1

Another experiment concerns the target T4, EGFR Kinase (Homo sapiens, UniProt P00533).
T4 construct: kinase
Also noted: Cerep Bioprint off-target panel, enzyme or kinase inhibition. As to conditions: inhibitor. The protocol:
as §1

In a further experiment the target is T5, Acetylcholinesterase (Homo sapiens, UniProt P22303).
T5 construct: gene ACHE
Also noted: Cerep Bioprint off-target panel, enzyme or kinase inhibition. The following applies: inhibitor. The protocol: as §1

Another experiment addresses T6, Cyclooxygenase 2 (Homo sapiens, UniProt P35354).
T6 construct: gene PTGS2
Also noted: Cerep Bioprint off-target panel, enzyme or kinase inhibition. The following applies: inhibitor. The protocol: as §1

For experiment [1], the target named is T7, Angiotensin Coverting Enzyme (Homo sapiens, UniProt P12821).
T7 construct: gene ACE
Also noted: Cerep Bioprint off-target panel, enzyme or kinase inhibition. As to conditions: inhibitor. The protocol: as §1

The target in another experiment is T8, Phosphodiesterase 4D2 (Homo sapiens, UniProt Q08499).
T8 construct: gene PDE4D; isoform 4D2
Also noted: Cerep Bioprint off-target panel, enzyme or kinase inhibition. The following applies: inhibitor. The protocol: as §1

For a further experiment, the target named is T9, Abl Kinase (Homo sapiens, UniProt P00519).
T9 construct: gene ABL1
T9 sequence (P00519 whole entry): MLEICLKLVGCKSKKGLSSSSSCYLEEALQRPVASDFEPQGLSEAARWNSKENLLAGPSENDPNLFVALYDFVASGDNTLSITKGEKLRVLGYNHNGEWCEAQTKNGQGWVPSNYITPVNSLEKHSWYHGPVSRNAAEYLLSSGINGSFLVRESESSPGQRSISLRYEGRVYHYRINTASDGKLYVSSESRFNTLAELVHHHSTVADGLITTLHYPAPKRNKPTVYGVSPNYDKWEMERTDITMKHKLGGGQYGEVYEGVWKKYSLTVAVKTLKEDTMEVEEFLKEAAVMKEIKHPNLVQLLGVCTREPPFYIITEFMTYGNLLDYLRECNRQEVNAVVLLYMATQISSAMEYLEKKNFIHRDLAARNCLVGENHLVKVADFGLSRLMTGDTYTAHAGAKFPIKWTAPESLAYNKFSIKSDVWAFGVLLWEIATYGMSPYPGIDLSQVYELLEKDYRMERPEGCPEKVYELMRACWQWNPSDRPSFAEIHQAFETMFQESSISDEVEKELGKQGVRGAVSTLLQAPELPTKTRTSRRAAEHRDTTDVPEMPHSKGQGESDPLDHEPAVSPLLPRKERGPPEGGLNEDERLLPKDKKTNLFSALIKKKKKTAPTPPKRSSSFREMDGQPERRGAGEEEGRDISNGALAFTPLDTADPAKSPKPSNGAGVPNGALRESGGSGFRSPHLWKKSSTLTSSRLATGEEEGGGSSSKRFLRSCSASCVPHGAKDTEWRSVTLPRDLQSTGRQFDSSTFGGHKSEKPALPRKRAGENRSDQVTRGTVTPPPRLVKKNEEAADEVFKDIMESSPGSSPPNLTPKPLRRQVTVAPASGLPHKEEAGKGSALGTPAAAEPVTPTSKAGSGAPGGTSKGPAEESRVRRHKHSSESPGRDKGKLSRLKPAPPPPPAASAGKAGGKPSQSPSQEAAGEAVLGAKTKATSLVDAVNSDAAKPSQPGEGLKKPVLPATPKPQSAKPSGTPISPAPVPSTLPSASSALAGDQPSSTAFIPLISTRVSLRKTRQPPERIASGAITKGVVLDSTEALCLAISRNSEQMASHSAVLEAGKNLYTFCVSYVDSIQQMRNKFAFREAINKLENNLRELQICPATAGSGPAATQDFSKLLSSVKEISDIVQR
More on the design: Cerep Bioprint off-target panel, enzyme or kinase inhibition. As to conditions: inhibitor. The protocol: as §1

A further experiment has as its target T10, Aurora A Kinase (Homo sapiens, UniProt O14965).
T10 construct: gene AURKA
Also noted: Cerep Bioprint off-target panel, enzyme or kinase inhibition. The following applies: inhibitor. The protocol:
as §1

In the next experiment the target is LCK (Homo sapiens, UniProt P06239). Also noted: Cerep Bioprint off-target panel, enzyme or kinase inhibition. As to conditions: inhibitor. The protocol: as §1
The target in the next experiment is T11, Androgen Receptor (Homo sapiens, UniProt P10275).
T11 construct: gene AR
T11 sequence (P10275 whole entry): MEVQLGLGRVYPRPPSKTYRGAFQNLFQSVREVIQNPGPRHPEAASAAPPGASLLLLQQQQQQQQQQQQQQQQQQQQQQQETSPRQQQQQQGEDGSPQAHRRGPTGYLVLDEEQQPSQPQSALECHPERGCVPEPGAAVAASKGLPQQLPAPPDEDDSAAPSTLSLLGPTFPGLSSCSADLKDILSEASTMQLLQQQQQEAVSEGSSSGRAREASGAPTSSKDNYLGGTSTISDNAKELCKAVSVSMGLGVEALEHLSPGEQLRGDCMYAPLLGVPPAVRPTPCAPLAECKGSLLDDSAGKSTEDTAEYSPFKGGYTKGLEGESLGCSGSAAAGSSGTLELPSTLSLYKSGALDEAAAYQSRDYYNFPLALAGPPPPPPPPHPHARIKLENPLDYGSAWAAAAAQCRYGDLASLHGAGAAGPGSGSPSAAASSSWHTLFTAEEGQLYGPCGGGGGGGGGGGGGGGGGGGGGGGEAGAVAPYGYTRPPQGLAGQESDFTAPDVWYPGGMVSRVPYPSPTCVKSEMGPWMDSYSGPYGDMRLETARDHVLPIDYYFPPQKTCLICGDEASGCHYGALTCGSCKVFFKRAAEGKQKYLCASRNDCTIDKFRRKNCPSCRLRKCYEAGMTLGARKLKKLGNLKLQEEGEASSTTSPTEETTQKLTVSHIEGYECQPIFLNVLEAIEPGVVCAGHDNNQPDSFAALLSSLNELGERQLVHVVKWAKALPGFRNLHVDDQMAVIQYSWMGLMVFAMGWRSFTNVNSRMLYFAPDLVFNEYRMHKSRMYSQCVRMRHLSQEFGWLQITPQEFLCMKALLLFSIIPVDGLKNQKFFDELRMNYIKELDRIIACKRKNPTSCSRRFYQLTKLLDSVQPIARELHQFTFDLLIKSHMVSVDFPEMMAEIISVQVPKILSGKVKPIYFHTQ
More on the design: Cerep Bioprint off-target panel, ligand binding inhibition. As to conditions: binder. The protocol:
as §1

In a further experiment the target is T12, Glucocorticoid Receptor (Homo sapiens, UniProt P04150).
T12 construct: gene NR3C1
More on the design: Cerep Bioprint off-target panel, ligand binding inhibition. The following applies: binder. The protocol:
as §1

The next experiment deals with T13, Dopamine Transporter (Homo sapiens, UniProt Q01959).
T13 construct: gene SLC6A3
More on the design: Cerep Bioprint off-target panel, ligand binding inhibition. The following applies: binder. The protocol:
as §1

The next experiment addresses T14, Serotonin 5-HT3 (Homo sapiens, UniProt P46098).
T14 construct: gene HTR3A
More on the design: Cerep Bioprint off-target panel, ligand binding inhibition. As to conditions: binder. The protocol: as §1

For experiment [2], the target named is T15, Nicotinic Acetylcholine Receptor (alpha4, beta2 subunit containing) (Homo sapiens, UniProt P17787+P43681).
T15 construct: gene CHRNB2
More on the design: Cerep Bioprint off-target panel, ligand binding inhibition. The following applies: binder. The protocol:
as §1

Experiment [3] deals with T16, Norepinephrine Transporter (Homo sapiens, UniProt P23975).
T16 construct: gene SLC6A2
More on the design: Cerep Bioprint off-target panel, ligand binding inhibition. As to conditions: binder. The protocol:
as §1

For another experiment, the target named is T17, GABAa1 Receptor (Homo sapiens, UniProt P14867+P18507+P47870).
T17 construct: gene GABRA1; alpha1
Also noted: Cerep Bioprint off-target panel, ligand binding inhibition. The following applies: binder. The protocol:
as §1

The target of a further experiment is T18, Choline Transporter (Homo sapiens, UniProt Q9GZV3).
T18 construct: gene SLC5A7
T18 sequence (Q9GZV3 whole entry): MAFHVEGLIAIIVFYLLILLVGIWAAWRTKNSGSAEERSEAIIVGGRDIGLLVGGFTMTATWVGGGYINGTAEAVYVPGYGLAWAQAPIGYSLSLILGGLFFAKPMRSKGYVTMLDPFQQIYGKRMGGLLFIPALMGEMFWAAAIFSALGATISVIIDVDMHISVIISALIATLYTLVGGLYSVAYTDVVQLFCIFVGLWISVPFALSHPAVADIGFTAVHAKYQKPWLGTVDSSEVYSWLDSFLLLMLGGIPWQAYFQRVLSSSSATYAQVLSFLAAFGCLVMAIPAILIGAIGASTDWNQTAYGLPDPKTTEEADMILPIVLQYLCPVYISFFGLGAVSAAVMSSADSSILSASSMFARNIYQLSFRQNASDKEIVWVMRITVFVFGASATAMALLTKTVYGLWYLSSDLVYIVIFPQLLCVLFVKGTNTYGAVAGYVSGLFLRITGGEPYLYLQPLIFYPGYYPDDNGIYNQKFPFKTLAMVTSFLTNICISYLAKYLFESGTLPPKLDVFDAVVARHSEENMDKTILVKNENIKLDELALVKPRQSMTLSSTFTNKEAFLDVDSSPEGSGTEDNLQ
More on the design: Cerep Bioprint off-target panel, ligand binding inhibition. As to conditions: binder. The protocol: as §1

For the next experiment, the target named is T19, PPAR-gamma (Homo sapiens, UniProt P37231).
T19 construct: gene PPARG
T19 sequence (P37231 1-505): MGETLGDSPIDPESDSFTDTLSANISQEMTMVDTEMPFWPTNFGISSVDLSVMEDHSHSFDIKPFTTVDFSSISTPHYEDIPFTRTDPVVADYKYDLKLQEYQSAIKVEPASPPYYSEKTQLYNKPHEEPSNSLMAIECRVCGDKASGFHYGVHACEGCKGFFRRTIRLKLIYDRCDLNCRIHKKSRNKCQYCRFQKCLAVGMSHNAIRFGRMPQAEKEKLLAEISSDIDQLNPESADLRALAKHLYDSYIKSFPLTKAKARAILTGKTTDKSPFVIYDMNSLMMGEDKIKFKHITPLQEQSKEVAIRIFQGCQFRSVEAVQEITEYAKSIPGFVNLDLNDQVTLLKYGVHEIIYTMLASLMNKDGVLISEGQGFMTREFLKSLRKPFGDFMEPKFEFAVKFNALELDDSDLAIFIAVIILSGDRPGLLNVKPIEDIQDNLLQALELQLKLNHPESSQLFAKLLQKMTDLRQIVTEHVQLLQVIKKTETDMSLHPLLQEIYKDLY
Also noted: Cerep Bioprint off-target panel, ligand binding inhibition. As to conditions: binder. The protocol:
as §1

The target of the next experiment is T20, Serotonin Transporter (Homo sapiens, UniProt P31645).
T20 construct: gene SLC6A4
T20 sequence (P31645 whole entry): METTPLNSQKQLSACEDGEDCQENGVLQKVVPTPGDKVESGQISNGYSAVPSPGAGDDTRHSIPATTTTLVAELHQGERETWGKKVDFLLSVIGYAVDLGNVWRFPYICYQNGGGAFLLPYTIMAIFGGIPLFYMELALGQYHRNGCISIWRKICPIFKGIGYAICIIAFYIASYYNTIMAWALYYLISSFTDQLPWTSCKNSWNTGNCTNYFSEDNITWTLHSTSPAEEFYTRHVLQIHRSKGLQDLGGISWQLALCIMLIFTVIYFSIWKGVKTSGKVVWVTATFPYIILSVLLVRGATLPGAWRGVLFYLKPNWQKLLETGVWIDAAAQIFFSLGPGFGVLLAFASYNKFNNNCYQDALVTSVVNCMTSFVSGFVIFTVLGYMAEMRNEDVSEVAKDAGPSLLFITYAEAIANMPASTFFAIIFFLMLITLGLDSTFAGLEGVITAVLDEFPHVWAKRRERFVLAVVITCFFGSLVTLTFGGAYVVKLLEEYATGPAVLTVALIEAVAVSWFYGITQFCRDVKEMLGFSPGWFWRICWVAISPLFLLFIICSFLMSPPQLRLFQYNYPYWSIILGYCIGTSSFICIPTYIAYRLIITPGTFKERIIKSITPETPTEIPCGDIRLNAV
More on the design: Cerep Bioprint off-target panel, ligand binding inhibition. As to conditions: binder. The protocol:
as §1

T4 sequence (P00533 whole entry): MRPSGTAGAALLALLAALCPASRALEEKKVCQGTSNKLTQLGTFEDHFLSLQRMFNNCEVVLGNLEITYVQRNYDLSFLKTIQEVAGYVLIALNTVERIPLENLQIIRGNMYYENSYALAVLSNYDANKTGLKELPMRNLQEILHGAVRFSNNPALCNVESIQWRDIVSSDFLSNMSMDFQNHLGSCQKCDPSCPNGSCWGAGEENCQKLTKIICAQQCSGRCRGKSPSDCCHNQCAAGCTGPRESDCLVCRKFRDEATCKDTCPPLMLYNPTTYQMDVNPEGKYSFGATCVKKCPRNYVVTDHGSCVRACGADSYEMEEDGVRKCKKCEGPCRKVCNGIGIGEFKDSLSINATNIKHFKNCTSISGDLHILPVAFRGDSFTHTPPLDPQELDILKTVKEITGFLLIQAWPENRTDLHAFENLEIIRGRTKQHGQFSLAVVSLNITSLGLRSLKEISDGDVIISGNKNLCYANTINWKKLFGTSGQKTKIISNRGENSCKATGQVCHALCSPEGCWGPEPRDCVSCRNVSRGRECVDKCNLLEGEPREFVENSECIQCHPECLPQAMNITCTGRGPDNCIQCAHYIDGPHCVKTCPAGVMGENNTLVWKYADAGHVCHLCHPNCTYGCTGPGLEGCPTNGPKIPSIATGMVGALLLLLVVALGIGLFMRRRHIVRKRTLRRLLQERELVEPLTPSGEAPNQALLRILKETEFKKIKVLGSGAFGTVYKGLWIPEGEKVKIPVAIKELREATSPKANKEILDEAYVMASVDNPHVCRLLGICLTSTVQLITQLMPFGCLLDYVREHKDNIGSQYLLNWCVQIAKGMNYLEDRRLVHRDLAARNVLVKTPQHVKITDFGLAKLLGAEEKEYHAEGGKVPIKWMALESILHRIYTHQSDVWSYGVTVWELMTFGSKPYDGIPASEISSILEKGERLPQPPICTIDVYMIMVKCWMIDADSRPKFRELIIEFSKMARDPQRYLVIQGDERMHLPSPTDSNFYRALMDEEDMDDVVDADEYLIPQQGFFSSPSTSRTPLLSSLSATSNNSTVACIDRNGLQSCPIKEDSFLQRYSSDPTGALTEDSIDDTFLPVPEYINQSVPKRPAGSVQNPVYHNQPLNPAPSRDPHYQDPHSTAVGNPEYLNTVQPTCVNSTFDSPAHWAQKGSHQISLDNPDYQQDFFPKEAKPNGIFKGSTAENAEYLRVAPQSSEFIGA
T10 sequence (O14965 whole entry): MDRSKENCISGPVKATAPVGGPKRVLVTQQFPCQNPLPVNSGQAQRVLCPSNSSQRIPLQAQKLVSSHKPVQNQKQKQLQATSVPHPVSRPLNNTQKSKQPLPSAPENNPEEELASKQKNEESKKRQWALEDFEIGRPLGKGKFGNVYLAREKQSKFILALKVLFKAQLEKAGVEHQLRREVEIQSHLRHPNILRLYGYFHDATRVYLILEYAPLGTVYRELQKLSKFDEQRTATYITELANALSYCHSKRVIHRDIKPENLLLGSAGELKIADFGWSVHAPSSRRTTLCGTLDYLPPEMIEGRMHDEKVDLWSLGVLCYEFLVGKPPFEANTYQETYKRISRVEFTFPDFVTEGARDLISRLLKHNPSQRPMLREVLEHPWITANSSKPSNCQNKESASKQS

For the molecule `O=C(O)c1sc2cc(F)sc2c1Cl` [PF-07208254, 3-chloro-5-fluorothieno[3,2-b]thiophene-2-carboxylic acid], the “% Inhibition PF-07208254” value on SRC (100 µM) is 11%; at Phosphodiesterase 3B (100 µM), -9%; at Kdr Kinase (VEGFR2) (100 µM), 57%; on P38alpha MAP Kinase (100 µM), 35%; at Monoamine Oxidase A (100 µM), 0%; on EGFR Kinase (100 µM) it was 19%. The “% Inhibition PF-07208254” value was -4% at Acetylcholinesterase (100 µM); 0% on Cyclooxygenase 2 (100 µM); -4% in experiment [1] (100 µM); -11% at Phosphodiesterase 4D2 (100 µM); 42% on Abl Kinase (100 µM); 15% at Aurora A Kinase (100 µM). Besides, the “% Inhibition PF-07208254” value on LCK (100 µM) was -4%. Further, the “% Inhibition (binding) PF-07208254” value on Androgen Receptor (100 µM) is listed as -4%; on Glucocorticoid Receptor (100 µM) it was 4%; at Dopamine Transporter (100 µM) it was 7%; at Serotonin 5-HT3 (100 µM), -14%; in [2] (100 µM), -6%; in experiment [3] (100 µM), -15%. In addition, the “% Inhibition (binding) PF-07208254” value at GABAa1 Receptor (100 µM) is given as -12%; on Choline Transporter (100 µM), -15%; on PPAR-gamma (100 µM), 62%; on Serotonin Transporter (100 µM) it was -3%.

As for `CCC1(COc2ccc(-c3csc(-c4ccccc4C(=O)O)n3)cn2)CC1` [PF-07247685, 2-(4-{6-[(1-ethylcyclopropyl)methoxy]pyridin-3-yl}-1,3-thiazol-2-yl)benzoic acid], the “% Inhibition PF-07247685” value on SRC (10 µM) is -8%; on Phosphodiesterase 3B (10 µM) it was -16%; on Kdr Kinase (VEGFR2) (10 µM), -11%; at P38alpha MAP Kinase (10 µM), 3%; on Monoamine Oxidase A (10 µM), 12%; on EGFR Kinase (10 µM) it was -6%. The “% Inhibition PF-07247685” value on Acetylcholinesterase (10 µM) is given as -4%; at Cyclooxygenase 2 (10 µM), 4%; in experiment [1] (10 µM), -31%; on Phosphodiesterase 4D2 (10 µM), -24%; on Abl Kinase (10 µM) it was 11%; on Aurora A Kinase (10 µM) it was -7%. Moreover, at LCK (10 µM), the “% Inhibition PF-07247685” value is given as -2%. Besides, the “% Inhibition (binding) PF-07247685” value is given as -8% at Androgen Receptor (10 µM); 0% at Glucocorticoid Receptor (10 µM); -1% on Dopamine Transporter (10 µM); 0% on Serotonin 5-HT3 (10 µM); -4% in experiment [2] (10 µM); 6% in [3] (10 µM). Also, the “% Inhibition (binding) PF-07247685” value is given as -21% at GABAa1 Receptor (10 µM), -12% at Choline Transporter (10 µM), 21% at PPAR-gamma (10 µM) and 2% at Serotonin Transporter (10 µM).

For the origin of these results see paper PMC10412597, “Small molecule branched-chain ketoacid dehydrogenase kinase (BDK) inhibitors with opposing effects on BDK protein levels” (Nature Communications, 2023).
